From US20100093811A1 (priority 2007, published 2010) come the findings set out here.

Structures are written as SMILES. Like-named read-outs stand apart in the source and are kept apart here.

The target of test [1] is wild-type HIV-1 protease (Human immunodeficiency virus type 1 group M subtype B, UniProt P04585). Put plainly: Assay for inhibition of microbial expressed HIV protease. The class given is biochemical. How it is done: Assay for Inhibition of Microbial Expressed HIV Protease
Inhibition studies of the reaction of the protease (which was expressed in Eschericia coli) with a peptide substrate [Val-Ser-Gln-Asn-(betanapthyl)Ala-Pro-Ile-Val]. The inhibitor is first preincubated with the enzyme in assay buffer (50 mM sodium acetate, pH 5.5, 100 mM NaCl, and 0.1% BSA) for 30 minutes at room temperature. Substrate is added to 440 micromolar in a total volume of 80 microliters containing 5 picomolar HIV-1 protease, and the reaction is incubated for 1 hour at 30° C. The reaction is quenched by addition of 120 microliters of 10% phosphoric acid, and product formation is determined after separation of product and substrate on a Vydac C18 column connected to an Alliance high performance liquid chromatography system (Waters Corporation). The extent of inhibition of the reaction is determined from the peak area of the products.

The test system of test [2] is acute HIV infection of T-lymphoid cells. Put plainly: Assay for inhibition of HIV replication (spread assay). The class given is cell-based, HIV-1. The following applies: Human immunodeficiency virus 1, T-lymphoid; read-out: Spread - IC95. How it is done: • Assay for Inhibition of HIV Replication
Assays for the inhibition of acute HIV infection of T-lymphoid cells were conducted in accordance with Vacca, J. P. et al., Proc. Natl. Acad. Sci. USA 1994, 91: 4096.

Setting [3] is: wild-type HIV-1 protease expressed in E. coli, peptide substrate, pH 5.5, read-out: Enzyme Inhibition - IC50.

In the case of `CCCN([C@H](CO)CCC[C@H](CC)NC(=O)[C@@H](NC(=O)OC)C(c1ccccc1)c1ccccc1)S(=O)(=O)c1ccc(N)cc1` [Example F5, N-{(1S,5S)-5-[[(4-aminophenyl)sulfonyl](propyl)amino]-1-ethyl-6-hydroxyhexyl}-Nα-(methoxycarbonyl)-β-phenyl-L-phenylalaninamide], in test [1] (setting [3]), the IC50 is 0.163 nM. For the same compound, the IC95 in test [2] was found to be 54 nM.

As for `CC[C@@H](CCC[C@@H](CO)N(CCC(C)C)S(=O)(=O)c1ccc(N)cc1)NC(=O)[C@@H](NC(=O)OC)C1c2ccccc2C=Cc2ccccc21` [Example F6, methyl [2-({(1S,5S)-5-[[(4-aminophenyl)sulfonyl](3-methylbutyl)amino]-1-ethyl-6-hydroxyhexyl}amino)-1-(5H-dibenzo[a,d][7]annulen-5-yl)-2-oxoethyl]carbamate], in test [1] (setting [3]), the IC50 stood at 0.01 nM. Also, the IC95 in test [2] stood at 10 nM.

Consider `CCCN([C@H](CO)CCC[C@H](CC)NC(=O)[C@H](Cc1ccccc1Br)NC(=O)OC)S(=O)(=O)c1ccc(N)cc1` [Example F7, N-{(1S,5S)-5-[[(4-aminophenyl)sulfonyl](propyl)amino]-1-ethyl-6-hydroxyhexyl}-2-bromo-Nα-(methoxycarbonyl)-L-phenylalaninamide], for which the IC50 in test [1] (setting [3]) was 0.862 nM. In addition, the IC95 in test [2] turned out to be 251 nM.

In the case of `CCCN([C@H](CO)CCC[C@H](CC)NC(=O)[C@H](Cc1ccccc1Cl)NC(=O)OC)S(=O)(=O)c1ccc(N)cc1` [Example F8, N-{(1S,5S)-5-[[(4-aminophenyl)sulfonyl](propyl)amino]-1-ethyl-6-hydroxyhexyl}-2-chloro-Nα-(methoxycarbonyl)-L-phenylalaninamide], the IC50 in test [1] (setting [3]) worked out at 1.45 nM. Moreover, the IC95 in test [2] stood at 249 nM.

Consider `CC[C@@H](CCC[C@@H](CO)N(CCC(C)C)S(=O)(=O)c1ccc(N)cc1)NC(=O)[C@@]1(NC(=O)OC(C)(C)C)C[C@@H]1c1ccccc1` [Example F9, tert-butyl {(1R,2R)-1-[({(1S,5S)-5-[[(4-aminophenyl)sulfonyl](3-methylbutyl)amino]-1-ethyl-6-hydroxyhexyl}amino)carbonyl]-2-phenylcyclopropyl}carbamate], for which, in test [1] (setting [3]), the IC50 is 0.064 nM. Also, the IC95 in test [2] turned out to be 76 nM.

In the case of `CC[C@@H](CCC[C@@H](CO)N(CCC(C)C)S(=O)(=O)c1ccc(N)cc1)NC(=O)[C@@H](NC(=O)OCc1ccncc1)C(c1ccccc1)c1ccccc1` [Example F10, N-{(1S,55)-5-[[(4-aminophenyl)sulfonyl](3-methylbutyl)amino]-1-ethyl-6-hydroxyhexyl}-β-phenyl-Nα-[(pyridin-4-ylmethoxy)carbonyl]-L-phenylalaninamide], the IC50 in test [1] (setting [3]) stood at 0.01 nM. The IC95 in test [2] turned out to be 17 nM.

As for `CC[C@@H](CCC[C@@H](CO)N(CCC(C)C)S(=O)(=O)c1ccc(N)cc1)NC(=O)[C@@H](NC(=O)OC)C1c2ccccc2Oc2ccccc21` [Example F11, methyl [2-({(1S,5S)-5-[[(4-aminophenyl)sulfonyl](3-methylbutyl)amino]-1-ethyl-6-hydroxyhexyl}amino)-2-oxo-1-(9H-xanthen-9-yl)ethyl]carbamate], the IC50 in test [1] (setting [3]) turned out to be 0.021 nM. The IC95 in test [2] came to 38 nM.

On to `CC[C@@H](CCC[C@@H](CO)N(CCC(C)C)S(=O)(=O)c1ccc(N)cc1)NC(=O)[C@@H](N)C(c1ccccc1)c1ccccc1` [Example F13, N-{(1S,5S)-5-[[(4-aminophenyl)sulfonyl](3-methylbutyl)amino]-1-ethyl-6-hydroxyhexyl}-β-phenyl-L-phenylalaninamide], for which, in test [1] (setting [3]), the IC50 is 0.01 nM. The IC95 in test [2] was 15 nM.

For the compound `COC(=O)N[C@H](C(=O)N[C@H](CCC[C@@H](CO)N(C(C)C)S(=O)(=O)c1ccc(N)cc1)C(C)C)C(c1ccccc1)c1ccccc1` [Example F14, N-{(1R,5S)-5-[[(4-aminophenyl)sulfonyl](isopropyl)amino]-6-hydroxy-1-isopropylhexyl}-Nα-(methoxycarbonyl)-β-phenyl-L-phenylalaninamide], in test [1] (setting [3]), the IC50 came out at 1.76 nM. In addition, in test [2], the IC95 is 148 nM.

For the compound `COC(=O)N[C@H](C(=O)N[C@@H](C)CCC[C@@H](CO)N(C(C)C)S(=O)(=O)c1ccc(N)cc1)C(c1cccc(F)c1)c1cccc(F)c1` [Example F15, N-{(1S,5S)-5-[[(4-aminophenyl)sulfonyl](isopropyl)amino]-6-hydroxy-1-methylhexyl}-3-fluoro-β-(3-fluorophenyl)-Nα-(methoxycarbonyl)-L-phenylalaninamide], the IC50 in test [1] (setting [3]) was 0.01 nM. For the same compound, the IC95 in test [2] came to 16 nM.

Consider `COC(=O)N[C@@H](Cc1cccc(Cl)c1Cl)C(=O)N[C@@H](C)CCC[C@@H](CO)N(C(C)C)S(=O)(=O)c1ccc(N)cc1` [Example F16, N-{(1S,5S)-5-[[(4-aminophenyl)sulfonyl](isopropyl)amino]-6-hydroxy-1-methylhexyl}-2,3-dichloro-Nα-(methoxycarbonyl)-L-phenylalaninamide], for which the IC50 in test [1] was 0.128 nM. Also, the IC95 in test [2] was found to be 58 nM.

As for `CCCN([C@H](CO)CCC[C@H](C)NC(=O)[C@@H](NC(=O)OC)C(c1cccc(F)c1)c1cccc(F)c1)S(=O)(=O)c1ccc(N)cc1` [Example F17, N-{(1S,5S)-5-[[(4-aminophenyl)sulfonyl](propyl)amino]-6-hydroxy-1-methylhexyl}-3-fluoro-β-(3-fluorophenyl)-Nα-(methoxycarbonyl)-L-phenylalaninamide], the IC50 in test [1] (setting [3]) stood at 0.01 nM. Also, the IC95 in test [2] was found to be 18 nM.

As to `CCN([C@H](CO)CCC[C@H](C)NC(=O)[C@@H](NC(=O)OC)C(c1ccccc1)c1ccccc1)S(=O)(=O)c1ccc(CO)cc1` [Example G1, N-[(1S,5S)-5-(ethyl{[4-(hydroxymethyl)phenyl]sulfonyl}amino)-6-hydroxy-1-methylhexyl]-Nα-(methoxycarbonyl)-β-phenyl-L-phenylalaninamide], the half-maximal inhibitory concentration (IC50) in test [1] (setting [3]) worked out at 0.05 nM. Also, the IC95 in test [2] came out at 37 nM.

In the case of `COC(=O)N[C@@H](Cc1ccccc1Cl)C(=O)N[C@@H](C)CCC[C@@H](CO)N(CC(C)C)S(=O)(=O)c1ccc(CO)cc1` [Example G2, 2-chloro-N-{(1S,5S)-6-hydroxy-5-[{[4-(hydroxymethyl)phenyl]sulfonyl}(isobutyl)amino]-1-methylhexyl}-Nα-(methoxycarbonyl)-L-phenylalaninamide], the IC50 in test [1] (setting [3]) stood at 0.082 nM. In addition, the IC95 in test [2] was 14 nM.

`COC(=O)N[C@H](C(=O)N[C@H](CCC[C@@H](CO)N(CCC(C)C)S(=O)(=O)c1ccc2ncsc2c1)C1CC1)C(c1ccccc1)c1ccccc1` [Example G3, N-{(1R,5S)-5-[(1,3-benzothiazol-6-ylsulfonyl)(3-metbylbutyl)amino]-1-cyclopropyl-6-hydroxyhexyl}-Nα-(methoxycarbonyl)-β-phenyl-L-phenylalaninamide]: the half-inhibitory concentration (IC50) in test [1] (setting [3]) came out at 0.158 nM. The IC95 in test [2] came to 44 nM.

For `COC(=O)N[C@H](C(=O)N[C@@H](C)CCC[C@@H](CO)N(C)S(=O)(=O)c1ccc(N)cc1)C(c1ccccc1)c1ccccc1` [Example G4, N-{(1S,5S)-5-[[(4-aminophenyl)sulfonyl](methyl)amino]-6-hydroxy-1-methylhexyl}-Nα-(metboxycarbonyl)-β-phenyl-L-phenylalaninamide], the IC50 in test [1] (setting [3]) was 0.405 nM. In test [2], the IC95 stood at 41 nM.
